The subject of experiment [1] is Wistar Charles River rats. Description: Euglycemic hyperinsulinemic clamp, high fat diet induced insulin resistance (Example 12). Format: in vivo, rat. The settings on record: HF diet supplemented with TTA, 21 days, 90 min clamp (FIG. 4). How it is done:
After 21 days on their respective diets (see above), the rats were anaesthetised by injection of xylazine hydrochloride (Rometar SPOFA, Prague, Czech Republic; 10 mg/ml) and ketamine hydrochloride (Narkamon SPOFA, Prague, Czech republic; 75 mg/ml), and fitted with chronic carotid artery and jugular vein cannulas as described by Koopmans et al. (Koopmans, S. J., et al., Biochim Biophys Acta, 1115, […] 1992.). The cannulated rats were allowed to recover for two days after surgery before the clamping studies which were carried out according to Kraegen et al. (Kraegen, E. W., et al., Am J Physiol, 248, E353-E362 1983.). Thus, on the third day after surgery, unrestrained conscious rats were given a continuous infusion of porcine insulin (Actrapid, Novo Nordisk, Denmark) at a dose of 6.4 mU per kg per min to achieve plasma insulin levels in the upper physiological range. The arterial blood glucose concentration was clamped at the basal fasting level, by variable infusion of a 30% w/v glucose solution (Leciva, Prague, Czech Republic). […]
Rats weighing 330±20 g were divided into 3 groups (n=9) and fed with three different diets: standard rat chow, high fat diet (HF) and HF supplemented with TTA. […] The glucose infusion rate (GIR) was determined from the period of the clamp where glycemia got stabilised, i.e. between 45-90 minutes after clamp commencement. […]

In the next experiment the test system is obese Zucker fa/fa rats. Description: Lipid lowering effect in obese Zucker fa/fa rats (Example 3). Format: in vivo, rat. The conditions noted are these: 300 mg/day/kg by gavage once daily for 10 days, control palmitic acid. How it is done: Glucose (GLU, Boehringer Mannheim, Germany), free fatty acids (NEFA, C ACS-ACOD kit; Wako Chemicals, Dalton, USA) and b-hydroxybutyrate (310-A kit; Sigma Diagnostics Inc., St. Louis, USA) concentrations were measured using enzymatic methods. Insulin concentrations were determined with radioimmunoassay by (CIS bio International, Gif sur Yvette, France) using rat insulin as standard in the Zucker rats. In the Wistar Charles River rats, plasma glucose concentrations were measured with the aid of Beckman Glucose Analyzer (Fullerton, Calif., USA). Plasma insulin levels were measured using a RIA kit from Linco Research Inc. (St. Charles, Mo., USA). Phospholipids were measured by the enzymatic method of bioMérieux, Marcy-l {grave over ( )}Etoile, France, Triacylglycerol by the Technicon Method no. SA4-0324L90, USA and Cholesterol by the Technicon Method no. SA4-0305L90, USA.
Male obese Zucker fa/fa rats, weighing 100 g at the start of the experiment, were housed in pairs in metal wire cages in a room maintained at 12 h light-dark cycles and a constant temperature of 20±3° C. The animals were acclimatised for at least one week under these conditions before the start of the experiment.
TTA (tetradecylthioacetic acid) prepared in accordance with procedure described previously, and palmitic acid (control), was suspended in 0.5% (w/v) carboxymethyl cellulose (CMC). Six animals were used in both groups. TTA (tetradecylthioacetic acid) and palmitic acid were administered at a dose of 300 mg/day/kg body weight, by gastric intubation (gavage) once daily for 10 days. The rats were fasted for 2 hours before termination of the experiment. Blood and organs were collected. Lipid concentrations in plasma were determined using an autoanalyzer, as described in the method section.

Experiment [2] concerns 5 weeks old Zucker (fa/fa) rats. In words: Intravenous glucose tolerance test (IVGTT) (Example 15). Format: in vivo, rat. On the procedure:
Male Zucker (fa/fa) rats (5 weeks old) were anaesthetised after a 5-hours fast, by intraperitoneal injection of sodium pentobarbital (50 mg/kg). The rats were injected with glucose (0.55 g/kg) in the saphenous vein and blood samples were collected from the tail vein in heparinized tubes at time 0, 5, 10, 15, 20 and 30 minutes after the glucose load. Samples were kept on ice, centrifuged and plasma was stored at −20° C. until analysis.

The subject of experiment [3] is high fat diet fed Wistar Charles River rats. Description: High fat diet with or without TTA for three weeks, adipose tissue weights (Example 5). The settings on record: high fat diet + 0.4% TTA for three weeks, mean ± SEM. It counts as in vivo, rat. How it is done:
Male Wistar Charles River rats weighing 280-358 grams were purchased from AnLab Ltd. (Prague, Czech Republic) and housed in wire-mesh cages in a temperature (22±1° C.) and light-controlled (light from 7:00 a.m. to 7:00 p.m.) room. They were given free access to chow and water. Three rats were housed per cage. Weight gain and food intake were recorded daily.
High Fat (HF): 1.9% gelatin, 5.7% wheat bran, 7.7% vitamins and minerals, 25.4% corn starch, 25.7% casein, 26.8% beef tallow and 7.1% sunflower oil.
HF+TTA: Same+0.4% TTA dissolved in the beef tallow.
Male Wistar Charles River rats (280-360 g) were fed 3 different diets (see methods) for 3 weeks ad libitum. Afterwards, they were killed by decapitation, liver and epididymal adipose tissue pads were dissected out and weighed.
Feeding the Wistar rats the high fat diet thus increased the epididymal and retroperitoneal fad pad weight.

A further experiment has as its target T1, PPARγ (Homo sapiens, UniProt P37231).
T1 sequence (P37231 1-505): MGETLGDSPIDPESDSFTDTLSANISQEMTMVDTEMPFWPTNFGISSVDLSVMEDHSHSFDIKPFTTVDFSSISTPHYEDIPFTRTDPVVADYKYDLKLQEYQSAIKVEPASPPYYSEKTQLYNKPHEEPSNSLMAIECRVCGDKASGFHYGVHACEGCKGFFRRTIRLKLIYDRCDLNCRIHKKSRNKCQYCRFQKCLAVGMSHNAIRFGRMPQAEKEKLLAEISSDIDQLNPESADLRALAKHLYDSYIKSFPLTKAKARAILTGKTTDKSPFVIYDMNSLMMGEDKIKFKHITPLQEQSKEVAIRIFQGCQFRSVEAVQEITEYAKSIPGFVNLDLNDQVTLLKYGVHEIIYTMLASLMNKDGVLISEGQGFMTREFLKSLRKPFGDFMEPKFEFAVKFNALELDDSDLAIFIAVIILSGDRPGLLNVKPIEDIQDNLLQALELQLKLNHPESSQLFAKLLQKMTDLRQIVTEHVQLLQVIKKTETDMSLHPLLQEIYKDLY
Description: Ligand of PPARγ. It counts as binding.

One substance from US6365628B1 (Thia Medica AS, priority 1998, dated 2002) can be followed below.

For Tetradecylthioacetic acid [TTA], the “Glucose infusion rate (GIR) in euglycemic hyperinsulinemic clamp” value in experiment [1] is on record as “fully normal”. Besides, in the experiment on obese Zucker fa/fa rats, the “Decreased lipid level in plasma (% of control) Cholesterol” value is on record as 73 % of control, the “Decreased lipid level in plasma (% of control) Phospholipids” value is 71 % of control and the “Decreased lipid level in plasma (% of control) Triglycerides” value was 72 % of control. The IVGTT glucose curves result in experiment [2] (TTA treated vs control (FIG. 7B)) was “normal and comparable”. In experiment [2] (glucose 0.55 g/kg i.v. (FIG. 7A)), the “Plasma insulin response to glucose (IVGTT)” value is “significantly lower”. In experiment [3], the “Epididymal adipose tissue” value is listed as 3.1 ± 0.2 g, the “Epididymal adipose tissue/body weight (%)” value worked out at 1.0 ± 0.1%, the “Retroperitoneal adipose tissue” value amounted to 2.7 ± 0.2 g and the “Retroperitoneal adipose tissue/body weight (%)” value turned out to be 0.8 ± 0.05%. Moreover, on PPARγ, the “Ligand of PPARγ” value is listed as “less potent ligand”.
